These are literature values, as cited in patent US7329690B2, “Effectiveness of invertebrate pest-control agents” (FMC Corporation, priority 2001, dated 2008).

On to `O=[N+]([O-])NC1=NCCN1Cc1ccc(Cl)nc1` [imidacloprid], for which the water solubility was 610 ppm.
